Some test systems named below: OVCAR-8 ovarian; KM12 colon; HT29 colon; EKVX NSCLC; UO-31 renal; SF-268 CNS; SK-MEL-28 melanoma; SK-MEL-2 melanoma; SR leukemia.
What all share (assay): NCI-60 cell line screen, 48 h

SMILES strings stand for the structures.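 Assay format: 96-well plates, 48-hour exposure. GI50 is the concentration that inhibits growth by half. TGI marks complete inhibition of growth.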 Where only a bound is given, the exact number is not on record here.

Turning to `CCC1(C)NN=c2s/c(=C/c3ccc(OC)cc3)c(=O)n2N1` (centres undefined), the TGI in the assay with OVCAR-8 ovarian, with KM12 colon, in the assay with HT29 colon, in the assay on EKVX NSCLC, with UO-31 renal and in the assay on SF-268 CNS was more than 100 µM each time. The TGI in the assay with SK-MEL-28 melanoma, in the assay on SK-MEL-2 melanoma and in the assay with SR leukemia was more than 100 µM in each case.

Regarding `CCC(C)CN1C(=O)NC(C)(Cc2ccccc2)C1=O` (centres undefined), the TGI with OVCAR-8 ovarian, with KM12 colon, in the assay on HT29 colon, in the assay with EKVX NSCLC, in the assay with UO-31 renal and in the assay on SF-268 CNS was more than 100 µM throughout. The TGI with SK-MEL-28 melanoma, in the assay with SK-MEL-2 melanoma and with SR leukemia was more than 100 µM in each case.

With `O=C(NCCCCCCCCNC(=O)c1cnc2ccccc2n1)c1cnc2ccccc2n1`, the TGI with OVCAR-8 ovarian, in the assay on KM12 colon, in the assay on HT29 colon, in the assay on EKVX NSCLC, in the assay on UO-31 renal and in the assay on SF-268 CNS was more than 100 µM in each case. The TGI with SK-MEL-2 melanoma and in the assay on SR leukemia was more than 100 µM throughout.

Turning to `C=CCC1OC(C)(C)Oc2ccc(OCOCCOC)cc21` (centres undefined), the TGI in the assay with OVCAR-8 ovarian, with KM12 colon, with HT29 colon, in the assay with EKVX NSCLC, with UO-31 renal and in the assay with SF-268 CNS was more than 100 µM throughout. Besides, the TGI in the assay with SK-MEL-28 melanoma and in the assay on SK-MEL-2 melanoma was more than 100 µM throughout.

For `N#Cc1cccc(N2C(=O)c3c(c(-c4ccccc4)c(-c4ccc(Sc5ccc(-c6c(-c7ccccc7)c7c(c(-c8ccccc8)c6-c6ccccc6)C(=O)N(c6cccc(C#N)c6)C7=O)cc5)cc4)c(-c4ccccc4)c3-c3ccccc3)C2=O)c1`, the TGI with OVCAR-8 ovarian, in the assay with KM12 colon, with HT29 colon, in the assay on EKVX NSCLC, in the assay with UO-31 renal and in the assay on SF-268 CNS was more than 100 µM each time. The TGI in the assay on SK-MEL-28 melanoma and in the assay with SK-MEL-2 melanoma was more than 100 µM throughout.

For `N=C(c1ccccc1)N(c1ccccc1)c1ccccc1`, the TGI in the assay on OVCAR-8 ovarian, in the assay on KM12 colon, in the assay with HT29 colon, in the assay on EKVX NSCLC, in the assay on UO-31 renal and with SF-268 CNS was more than 100 µM each time. Besides, the TGI with SK-MEL-28 melanoma, with SK-MEL-2 melanoma and in the assay with SR leukemia was more than 100 µM each time.

On to `CC1=C(C(=O)NCc2ccccc2)C(c2ccc(C3C(C(=O)NCc4ccccc4)=C(C)NC(C)=C3C(=O)NCc3ccccc3)cc2)C(C(=O)NCc2ccccc2)=C(C)N1`, for which the TGI with OVCAR-8 ovarian stood at 20.9 µM; in the assay on KM12 colon it was 24.4 µM; in the assay with HT29 colon, 20.3 µM; in the assay with EKVX NSCLC, 28.9 µM; in the assay with UO-31 renal, 35.7 µM; with SF-268 CNS, 81.7 µM. Moreover, the TGI is 25.2 µM with SK-MEL-28 melanoma, 49.9 µM with SK-MEL-2 melanoma and 20.7 µM in the assay on SR leukemia.

Take `CCOc1ccc(NC(=O)CC2SC(=Nc3ccc(Cl)cc3)NC2=O)cc1` (centres undefined): the TGI in the assay on OVCAR-8 ovarian, in the assay with KM12 colon, in the assay on HT29 colon, with EKVX NSCLC, with UO-31 renal and in the assay on SF-268 CNS was more than 100 µM throughout. Also, the TGI with SK-MEL-28 melanoma and in the assay with SK-MEL-2 melanoma was more than 100 µM throughout.

`COc1cc2c(cc1O)C=NCC2`: the TGI in the assay on OVCAR-8 ovarian, in the assay with KM12 colon, in the assay with EKVX NSCLC, with UO-31 renal, with SF-268 CNS and in the assay with SK-MEL-28 melanoma was more than 100 µM each time. Moreover, the TGI in the assay with SK-MEL-2 melanoma is more than 100 µM.

For `C#CCC[C@@H]1O[C@@]1(C)CC/C=C(\C)CC/C=C/C=O`, the TGI is 38.3 µM with OVCAR-8 ovarian; more than 100 µM in the assay on KM12 colon; more than 100 µM in the assay with HT29 colon; more than 100 µM in the assay with EKVX NSCLC; more than 100 µM in the assay on UO-31 renal; 56.3 µM with SF-268 CNS. Also, the TGI with SK-MEL-2 melanoma and in the assay on SR leukemia was more than 100 µM in each case.

For `COc1ccc(/C(=N/NC(N)=O)C2(O)C(=O)Nc3ccc([N+](=O)[O-])cc32)cc1` (centres undefined), the TGI was 47.7 µM in the assay on OVCAR-8 ovarian; 49.5 µM in the assay with KM12 colon; 42.2 µM in the assay with HT29 colon; more than 100 µM with EKVX NSCLC; 34.8 µM in the assay on UO-31 renal; 40.6 µM with SF-268 CNS. The TGI was found to be 36.9 µM in the assay on SK-MEL-28 melanoma, 40.2 µM in the assay with SK-MEL-2 melanoma and 47.1 µM with SR leukemia.

On to `CC[P+](C)(Cc1ccccc1)c1ccccc1` (centres undefined), for which the TGI in the assay with OVCAR-8 ovarian, with KM12 colon, with HT29 colon, in the assay on EKVX NSCLC, with UO-31 renal and in the assay on SK-MEL-28 melanoma was more than 100 µM throughout. The TGI in the assay on SK-MEL-2 melanoma and with SR leukemia was more than 100 µM each time.

Take `O=C(O)c1ccccc1Cc1ccco1`: the TGI in the assay on OVCAR-8 ovarian, in the assay on KM12 colon, with HT29 colon, in the assay on EKVX NSCLC, with UO-31 renal and in the assay with SF-268 CNS was more than 100 µM throughout. In addition, the TGI with SK-MEL-2 melanoma and in the assay with SR leukemia was more than 100 µM in each case.

For `CC1CC2C3CC(F)C4=CC(=O)C=CC4(C)C3(F)C(O)CC2(C)C1(O)C(=O)COC(=O)C(C)(C)C` (centres undefined), the TGI with KM12 colon, in the assay on HT29 colon, with EKVX NSCLC, with UO-31 renal, in the assay with SF-268 CNS and in the assay with SK-MEL-28 melanoma was more than 100 µM throughout. Moreover, the TGI in the assay with SK-MEL-2 melanoma and in the assay with SR leukemia was more than 100 µM in each case.

In the case of `Cc1cccc(C(=O)c2cccc3ccccc23)c1C(=O)O`, the TGI with OVCAR-8 ovarian, in the assay on HT29 colon, with EKVX NSCLC, in the assay on UO-31 renal, with SF-268 CNS and in the assay with SK-MEL-28 melanoma was more than 100 µM in each case. The molecule also returned a TGI in the assay with SK-MEL-2 melanoma of more than 100 µM.

Consider `c1ccc(SC2(Sc3ccccc3)CCCC2)cc1`, for which the TGI with OVCAR-8 ovarian, in the assay on KM12 colon, in the assay with EKVX NSCLC, with UO-31 renal, in the assay on SF-268 CNS and in the assay on SK-MEL-28 melanoma was more than 100 µM each time. The TGI in the assay on SK-MEL-2 melanoma and with SR leukemia was more than 100 µM in each case.

With `CC(=O)N1CCN(C2=Nc3ccccc3CO2)C1=S`, the GI50 in the assay on OVCAR-8 ovarian is more than 100 µM; in the assay with KM12 colon, more than 100 µM; with HT29 colon, 89.6 µM; with EKVX NSCLC, 45.1 µM; in the assay on UO-31 renal, more than 100 µM; in the assay with SF-268 CNS, more than 100 µM. The GI50 is more than 100 µM in the assay on SK-MEL-28 melanoma and 29.3 µM in the assay on SR leukemia. The TGI in the assay on OVCAR-8 ovarian, with KM12 colon, with HT29 colon, in the assay with EKVX NSCLC, in the assay on UO-31 renal and in the assay on SF-268 CNS was more than 100 µM throughout. Further, the TGI with SK-MEL-28 melanoma was more than 100 µM; in the assay on SR leukemia, 68.4 µM.

As for `CC1=CCC[C@@]2(C)C(CC[C@@H]2C(C)/C=C/C(C)C)c2ccc(cc2C(=O)O)C[C@@H](O)CC1` (some centres undefined), the TGI with OVCAR-8 ovarian turned out to be 33.3 µM; with KM12 colon it was 24.8 µM; in the assay on HT29 colon it was 17.6 µM; in the assay on UO-31 renal, 29.2 µM; with SF-268 CNS, 29.7 µM; with SK-MEL-28 melanoma, 28.4 µM. Further, the TGI in the assay with SK-MEL-2 melanoma came to 37.5 µM; in the assay with SR leukemia it was 33 µM.

For the molecule `Cc1ccc(C)c(NC(=O)C(=O)CC(=O)C2CCOC2=O)c1` (centres undefined), the TGI with OVCAR-8 ovarian, with KM12 colon, in the assay on HT29 colon, with EKVX NSCLC, in the assay on UO-31 renal and in the assay on SF-268 CNS was more than 100 µM each time. Besides, the TGI in the assay with SK-MEL-28 melanoma and in the assay with SK-MEL-2 melanoma was more than 100 µM throughout.

As to `COc1cc(CCc2cccnc2)cc(OC)c1OC`, the TGI in the assay on OVCAR-8 ovarian, in the assay with KM12 colon, in the assay on HT29 colon, in the assay on EKVX NSCLC, in the assay on UO-31 renal and with SF-268 CNS was more than 100 µM each time. This molecule had a TGI with SK-MEL-28 melanoma of more than 100 µM.

Take `O=C(CC1=Nc2nnc(-c3nnc4n3C(=O)C(CC(=O)c3cccnc3)=N4)n2C1=O)c1cccnc1`: the TGI in the assay on KM12 colon, in the assay on HT29 colon, with UO-31 renal, in the assay on SF-268 CNS, in the assay with SK-MEL-28 melanoma and in the assay on SK-MEL-2 melanoma was more than 100 µM throughout.

Turning to `O=C1c2ccccc2C2(O)Nc3cc(O)ccc3C12O` (centres undefined), the TGI in the assay with OVCAR-8 ovarian, with KM12 colon, with HT29 colon, in the assay on EKVX NSCLC, in the assay with SF-268 CNS and with SK-MEL-28 melanoma was more than 100 µM each time. The same molecule displayed a TGI with SK-MEL-2 melanoma of more than 100 µM.

Turning to `O=C(O)CN(c1ccccc1)S(=O)(=O)c1ccc(NC(=O)c2ccccc2)cc1`, the TGI with OVCAR-8 ovarian, in the assay on EKVX NSCLC, in the assay with UO-31 renal, in the assay with SF-268 CNS, in the assay on SK-MEL-28 melanoma and with SK-MEL-2 melanoma was more than 100 µM in each case.
